Assay results as given in patent US20230374038A1, “MODULATORS OF CYSTIC FIBROSIS TRANSMEMBRANE CONDUCTANCE REGULATOR” (VERTEX PHARMACEUTICALS INCORPORATED, priority 2020, published 2023).

Biological target: T1, CFTR (Homo sapiens, UniProt P13569, DEL508-508)
T1 construct: endogenous in cells; host or cells: primary human bronchial epithelial cells, F508del/MF genotype
Assay: HBE Assay: Ussing chamber assay of CFTR-mediated short-circuit currents in F508del/MF-HBE cells with 1 μM Ivacaftor
Format: cell-based
Conditions: range of concentrations with 1 μM Ivacaftor, 18-24 hours, 20% human serum
Description: Ussing chamber experiments were performed using human bronchial epithelial (HBE) cells derived from CF subjects heterozygous for F508del and a minimal function CFTR mutation (F508del/MF-HBE) and cultured as previously described (Neuberger T, Burton B, Clark H, Van Goor F Methods Mol Biol 2011:741:39-54). After four days the apical media was removed, and the cells were grown at an air liquid interface for >14 days prior to use.
(§1) To isolate the CFTR-mediated short-circuit (ISC) current, F508del/MF-HBE grown on Costar® Snapwell™ cell culture inserts were mounted in an Ussing chamber and the transepithelial ISC was measured under voltage-clamp recording conditions (Vhold=0 mV) at 37° C. The basolateral solution contained (in mM) 145 NaCl, 0.83 K2HIPO4, 3.3 KH2PO4, 1.2 MgCl2, 1.2 CaCl2), 10 Glucose, 10 HEPES (pH adjusted to 7.4 with NaOH) and the apical solution contained (in mM) 145 NaGluconate, 1.2 MgCl2, 1.2 CaCl2), 10 glucose, 10 HEPES (pH adjusted to 7.4 with NaOH) and 30 μM amiloride to block the epithelial sodium channel. Forskolin (20 μM) was added to the apical surface to activate CFTR, followed by apical addition of a CFTR inhibitor cocktail consisting of BPO, GlyH-101, and CFTR inhibitor 172 (each at 20 μM final assay concentration) to specifically isolate CFTR currents. The CFTR-mediated ISC (μA/cm^2) for each condition was determined from the peak forskolin response to the steady-state current following inhibition.
The activity of the CFTR corrector compounds on the CFTR-mediated ISC was determined in Ussing chamber studies as described above. The F508del/MF-HBE cell cultures were either incubated with the corrector compounds at a range of concentrations in combination with 1 μM Ivacaftor or were incubated with the corrector compounds at a single fixed concentration of 10 μM in combination with 1 μM Ivacaftor for 18-24 hours at 37° C. and in the presence of 20% human serum. The concentration of corrector compounds with 1 μM Ivacaftor during the 18-24 hours incubations was kept constant throughout the Ussing chamber measurement of the CFTR-mediated ISC to ensure compounds were present throughout the entire experiment.
as §1, with “K2HPO4,” for “K2HIPO4,”

T1 sequence (P13569 with tags, fused parts or gaps DEL508-508): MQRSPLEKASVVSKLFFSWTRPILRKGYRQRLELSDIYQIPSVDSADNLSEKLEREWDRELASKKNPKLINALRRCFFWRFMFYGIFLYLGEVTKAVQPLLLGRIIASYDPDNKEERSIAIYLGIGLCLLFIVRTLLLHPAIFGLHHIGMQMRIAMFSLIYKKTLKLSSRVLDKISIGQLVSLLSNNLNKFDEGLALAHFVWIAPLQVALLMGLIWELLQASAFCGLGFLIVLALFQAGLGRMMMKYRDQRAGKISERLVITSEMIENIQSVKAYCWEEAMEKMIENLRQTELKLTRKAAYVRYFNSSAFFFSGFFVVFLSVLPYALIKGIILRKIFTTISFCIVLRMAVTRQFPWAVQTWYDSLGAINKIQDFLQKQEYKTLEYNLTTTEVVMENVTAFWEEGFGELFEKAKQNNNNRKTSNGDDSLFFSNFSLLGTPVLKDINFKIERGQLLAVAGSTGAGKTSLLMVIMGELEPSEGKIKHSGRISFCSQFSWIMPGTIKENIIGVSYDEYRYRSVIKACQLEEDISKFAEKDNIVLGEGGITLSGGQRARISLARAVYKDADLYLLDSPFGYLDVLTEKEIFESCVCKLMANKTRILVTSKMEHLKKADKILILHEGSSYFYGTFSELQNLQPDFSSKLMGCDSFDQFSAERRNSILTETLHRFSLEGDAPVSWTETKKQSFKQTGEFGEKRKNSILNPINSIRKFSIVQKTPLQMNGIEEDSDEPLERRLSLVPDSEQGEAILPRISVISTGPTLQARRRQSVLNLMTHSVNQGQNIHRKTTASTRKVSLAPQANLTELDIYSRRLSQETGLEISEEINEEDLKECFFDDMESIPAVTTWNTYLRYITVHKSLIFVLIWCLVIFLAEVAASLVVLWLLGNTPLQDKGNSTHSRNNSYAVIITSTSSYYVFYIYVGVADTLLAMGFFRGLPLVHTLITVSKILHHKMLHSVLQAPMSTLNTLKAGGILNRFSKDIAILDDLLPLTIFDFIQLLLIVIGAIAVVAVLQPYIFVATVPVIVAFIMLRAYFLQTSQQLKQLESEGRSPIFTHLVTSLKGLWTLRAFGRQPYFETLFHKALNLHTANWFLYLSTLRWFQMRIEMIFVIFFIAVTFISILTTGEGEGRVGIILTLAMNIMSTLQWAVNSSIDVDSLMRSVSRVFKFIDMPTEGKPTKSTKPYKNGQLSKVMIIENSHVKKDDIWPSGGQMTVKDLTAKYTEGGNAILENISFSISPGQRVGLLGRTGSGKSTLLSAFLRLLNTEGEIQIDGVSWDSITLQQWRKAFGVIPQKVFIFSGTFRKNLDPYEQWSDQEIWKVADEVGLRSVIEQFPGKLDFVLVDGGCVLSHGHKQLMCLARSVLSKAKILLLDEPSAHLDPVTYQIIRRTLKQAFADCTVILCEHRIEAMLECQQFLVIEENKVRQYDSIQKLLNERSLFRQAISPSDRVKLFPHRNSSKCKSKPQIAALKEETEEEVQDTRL

EC50, < 1000 nM:
Cc1cccc(CC(C)(C)C)c1-c1nc2nc(c1C)OC[C@@H](CC(C)(C)C)N(Cc1ncc(OC(C)C)cn1)C(=O)c1cccc(c1)S(=O)(=O)N2 (atropisomer, axis not shown) [Compound 351]
Cc1cccc(C)c1-c1nc2nc(c1C)OC[C@@H](CC1CC1)N(Cc1ncc(OC3CCC3)cn1)C(=O)c1cccc(c1)S(=O)(=O)N2 [Compound 346]
Cc1cccc(C)c1-c1nc2nc(c1F)OC[C@@H](CC(C)(C)C)N(Cc1ncc(OC(C)C)cn1)C(=O)c1cccc(c1)S(=O)(=O)N2 [Compound 335]

Same assay, conditions: single fixed concentration of 10 μM with 1 μM Ivacaftor, 18-24 hours, 20% human serum

HBE Activity at 10 μM (%), +++ (+++ is >60%):
Cc1cccc(CC(C)(C)C)c1-c1nc2nc(c1C)OC[C@@H](CC(C)(C)C)N(Cc1ncc(OC(C)C)cn1)C(=O)c1cccc(c1)S(=O)(=O)N2 (atropisomer, axis not shown) [Compound 351]
Cc1cccc(CC(C)(C)C)c1-c1nc2nc(c1C)OC[C@@H](CC(C)(C)C)N(Cc1ncc(OC3CCC3)cn1)C(=O)c1cccc(c1)S(=O)(=O)N2 (atropisomer, axis not shown) [Compound 353]

Same assay, conditions: single fixed concentration of 10 μM, with 1 μM Ivacaftor, 20% human serum

HBE Activity at 10 μM, ++ (++ is 30-60%):
Cc1cccc(CC(C)(C)C)c1-c1nc2nc(c1C)OC[C@@H](CC(C)(C)C)N(Cc1ncc(N3CCC(C)(C)C3)cn1)C(=O)c1cccc(c1)S(=O)(=O)N2 (atropisomer, axis not shown; (M)) [Compound 214, (5M,11R)-11-(2,2-dimethylpropyl)-6-[2-(2,2-dimethylpropyl)-6-methylphenyl]-12-{[5-(3,3-dimethylpyrrolidin-1-yl)pyrimidin-2-yl]methyl}-7-methyl-9-oxa-2λ^6-thia-3,5,12,19-tetraazatricyclo[12.3.1.14,8]nonadeca-1(17),4(19),5,7,14(18),15-hexaene-2,2,13-trione]
Cc1cccc(CC2CCOCC2)c1-c1nc2nc(c1C)OC[C@@H](CC(C)(C)C)N(Cc1ccc(N3CCOCC3)cn1)C(=O)c1cccc(c1)S(=O)(=O)N2 (atropisomer, axis not shown) [Compound 274]

HBE Activity at 10 μM, +++ (+++ is >600%):
Cc1cccc(COC(C)C)c1-c1nc2nc(c1C)OC[C@@H](CC(C)(C)C)N(Cc1nccc(N(C)C(C)C)n1)C(=O)c1cccc(c1)S(=O)(=O)N2 (atropisomer, axis not shown) [Compound 230]
Cc1cccc(C(C)C)c1-c1nc2nc(c1C)OC[C@@H](CC(C)(C)C)N(Cc1cnc(C3CCOCC3)cn1)C(=O)c1cccc(c1)S(=O)(=O)N2 (atropisomer, axis not shown) [Compound 319]
Cc1cccc(CC(C)C)c1-c1nc2nc(c1C)OC[C@@H](CC(C)(C)C)N(Cc1ncc(N(C)CC(C)(C)C)cn1)C(=O)c1cccc(c1)S(=O)(=O)N2 (atropisomer, axis not shown; (M)) [Compound 210, (5M,11R)-11-(2,2-dimethylpropyl)-12-({5-[(2,2-dimethylpropyl)(methyl)amino]pyrimidin-2-yl}methyl)-7-methyl-6-[2-methyl-6-(2-methylpropyl)phenyl]-9-oxa-2λ^6-thia-3,5,12,19-tetraazatricyclo[12.3.1.14,8]nonadeca-1(17),4(19),5,7,14(18),15-hexaene-2,2,13-trione]

Same assay, conditions: with 1 μM Ivacaftor, 18-24 hours, 20% human serum

EC50, < 1000 nM:
CCc1cccc(C)c1-c1nc2nc(c1C)OC[C@@H](CC(C)(C)C)N(Cc1ccc(N3CCOCC3)cn1)C(=O)c1cccc(c1)S(=O)(=O)N2 (atropisomer, axis not shown) [Compound 286]
Cc1cccc(CC2CCCCC2)c1-c1nc2nc(c1C(F)(F)F)OC[C@@H](CC(C)(C)C)N(Cc1ncc(N3CCOCC3)cn1)C(=O)c1cccc(c1)S(=O)(=O)N2 (atropisomer, axis not shown) [Compound 244]
Cc1cccc(CC2CCCCC2)c1-c1nc2nc(c1C)OC[C@@H](CC(C)(C)C)N(Cc1nccc(N(C)C)n1)C(=O)c1cccc(c1)S(=O)(=O)N2 (atropisomer, axis not shown) [Compound 261]
Cc1cccc(CC2CCCCC2)c1-c1nc2nc(c1C)OC[C@@H](CC(C)(C)C)N(Cc1ncc(N3CC(C)(C)C3)cn1)C(=O)c1cccc(c1)S(=O)(=O)N2 (atropisomer, axis not shown) [Compound 253]
Cc1cccc(CC(C)C)c1-c1nc2nc(c1C)OC[C@@H](CC(C)(C)C)N(Cc1cnc(C3CCOCC3)cn1)C(=O)c1cccc(c1)S(=O)(=O)N2 (atropisomer, axis not shown) [Compound 313]
Cc1cccc(CC2CCCCC2)c1-c1nc2nc(c1C)OC[C@@H](CC(C)(C)C)N(Cc1ncc(N3CCOCC3)cn1)C(=O)c1cccc(c1)S(=O)(=O)N2 (atropisomer, axis not shown) [Compound 306]
Cc1cccc(CC(C)C)c1-c1nc2nc(c1C)OC[C@@H](CC(C)(C)C)N(Cc1ncc(CC(C)C)cn1)C(=O)c1cccc(c1)S(=O)(=O)N2 (atropisomer, axis not shown) [Compound 264]
Cc1cccc(CC(C)C)c1-c1nc2nc(c1C)OC[C@@H](CC(C)(C)C)N(Cc1ncc(N3CCOCC3)cn1)C(=O)c1cccc(c1)S(=O)(=O)N2 (atropisomer, axis not shown) [Compound 295]
Cc1cccc(C2CC2)c1-c1nc2nc(c1C)OC[C@@H](CC(C)(C)C)N(Cc1ncc(N3CCOCC3)cn1)C(=O)c1cccc(c1)S(=O)(=O)N2 (atropisomer, axis not shown; (P)) [Compound 216, (5P,11R)-6-(2-Cyclopropyl-6-methyl-phenyl)-11-(2,2-dimethylpropyl)-7-methyl-12-[(5-morpholinopyrimidin-2-yl)methyl]-2,2-dioxo-9-oxa-2λ^6-thia-3,5,12,19-tetrazatricyclo[12.3.1.14,8]nonadeca-1(18),4(19),5,7,14,16-hexaen-13-one]
COCCN(C)c1ccc(CN2C(=O)c3cccc(c3)S(=O)(=O)Nc3nc(c(C)c(-c4c(C)cccc4CC(C)C)n3)OC[C@H]2CC(C)(C)C)nc1 (atropisomer, axis not shown) [Compound 292]
Cc1cccc(C2CC2)c1-c1nc2nc(c1C)OC[C@@H](CC(C)(C)C)N(Cc1ccc(N3CCOCC3)cn1)C(=O)c1cccc(c1)S(=O)(=O)N2 (atropisomer, axis not shown) [Compound 228]
Cc1cccc(CC(C)C)c1-c1nc2nc(c1C(F)(F)F)OC[C@@H](CC(C)(C)C)N(Cc1ncc(N3CCOCC3)cn1)C(=O)c1cccc(c1)S(=O)(=O)N2 (single isomer, unassigned) [Compound 212]
Cc1cccc(CC2CCCCC2)c1-c1nc2nc(c1C)OC[C@@H](CC(C)(C)C)N(Cc1cccc(N(C)C(C)C)n1)C(=O)c1cccc(c1)S(=O)(=O)N2 (atropisomer, axis not shown) [Compound 255]

EC50, 1000 to 3000 nM:
COCCN(C)c1cnc(CN2C(=O)c3cccc(c3)S(=O)(=O)Nc3nc(c(C)c(-c4c(C)cccc4CC4CCCCC4)n3)OC[C@H]2CC(C)(C)C)cn1 [Compound 278]
Cc1cccc(CC(C)C)c1-c1nc2nc(c1C)OC[C@@H](C(C)C)N(Cc1ncc(N3CCC(C)(C)C3)cn1)C(=O)c1cccc(c1)S(=O)(=O)N2 [Compound 240]

HBE Max Activity, +++ (+++ is >600%):
CCc1cccc(C)c1-c1nc2nc(c1C)OC[C@@H](CC(C)(C)C)N(Cc1ccc(N3CCOCC3)cn1)C(=O)c1cccc(c1)S(=O)(=O)N2 (atropisomer, axis not shown) [Compound 286]
Cc1cccc(CC2CCCCC2)c1-c1nc2nc(c1C(F)(F)F)OC[C@@H](CC(C)(C)C)N(Cc1ncc(N3CCOCC3)cn1)C(=O)c1cccc(c1)S(=O)(=O)N2 (atropisomer, axis not shown) [Compound 244]
Cc1cccc(CC2CCCCC2)c1-c1nc2nc(c1C)OC[C@@H](CC(C)(C)C)N(Cc1nccc(N(C)C)n1)C(=O)c1cccc(c1)S(=O)(=O)N2 (atropisomer, axis not shown) [Compound 261]
COCCN(C)c1cnc(CN2C(=O)c3cccc(c3)S(=O)(=O)Nc3nc(c(C)c(-c4c(C)cccc4CC4CCCCC4)n3)OC[C@H]2CC(C)(C)C)cn1 [Compound 278]
Cc1cccc(CC2CCCCC2)c1-c1nc2nc(c1C)OC[C@@H](CC(C)(C)C)N(Cc1ncc(N3CC(C)(C)C3)cn1)C(=O)c1cccc(c1)S(=O)(=O)N2 (atropisomer, axis not shown) [Compound 253]
Cc1cccc(CC(C)C)c1-c1nc2nc(c1C)OC[C@@H](CC(C)(C)C)N(Cc1cnc(C3CCOCC3)cn1)C(=O)c1cccc(c1)S(=O)(=O)N2 (atropisomer, axis not shown) [Compound 313]
Cc1cccc(CC2CCCCC2)c1-c1nc2nc(c1C)OC[C@@H](CC(C)(C)C)N(Cc1ncc(N3CCOCC3)cn1)C(=O)c1cccc(c1)S(=O)(=O)N2 (atropisomer, axis not shown) [Compound 306]
Cc1cccc(CC(C)C)c1-c1nc2nc(c1C)OC[C@@H](CC(C)(C)C)N(Cc1ncc(CC(C)C)cn1)C(=O)c1cccc(c1)S(=O)(=O)N2 (atropisomer, axis not shown) [Compound 264]
Cc1cccc(CC(C)C)c1-c1nc2nc(c1C)OC[C@@H](C(C)C)N(Cc1ncc(N3CCC(C)(C)C3)cn1)C(=O)c1cccc(c1)S(=O)(=O)N2 [Compound 240]
Cc1cccc(CC(C)C)c1-c1nc2nc(c1C)OC[C@@H](CC(C)(C)C)N(Cc1ncc(N3CCOCC3)cn1)C(=O)c1cccc(c1)S(=O)(=O)N2 (atropisomer, axis not shown) [Compound 295]
Cc1cccc(C2CC2)c1-c1nc2nc(c1C)OC[C@@H](CC(C)(C)C)N(Cc1ncc(N3CCOCC3)cn1)C(=O)c1cccc(c1)S(=O)(=O)N2 (atropisomer, axis not shown; (P)) [Compound 216, (5P,11R)-6-(2-Cyclopropyl-6-methyl-phenyl)-11-(2,2-dimethylpropyl)-7-methyl-12-[(5-morpholinopyrimidin-2-yl)methyl]-2,2-dioxo-9-oxa-2λ^6-thia-3,5,12,19-tetrazatricyclo[12.3.1.14,8]nonadeca-1(18),4(19),5,7,14,16-hexaen-13-one]
COCCN(C)c1ccc(CN2C(=O)c3cccc(c3)S(=O)(=O)Nc3nc(c(C)c(-c4c(C)cccc4CC(C)C)n3)OC[C@H]2CC(C)(C)C)nc1 (atropisomer, axis not shown) [Compound 292]
Cc1cccc(C2CC2)c1-c1nc2nc(c1C)OC[C@@H](CC(C)(C)C)N(Cc1ccc(N3CCOCC3)cn1)C(=O)c1cccc(c1)S(=O)(=O)N2 (atropisomer, axis not shown) [Compound 228]
Cc1cccc(CC(C)C)c1-c1nc2nc(c1C(F)(F)F)OC[C@@H](CC(C)(C)C)N(Cc1ncc(N3CCOCC3)cn1)C(=O)c1cccc(c1)S(=O)(=O)N2 (single isomer, unassigned) [Compound 212]
Cc1cccc(CC2CCCCC2)c1-c1nc2nc(c1C)OC[C@@H](CC(C)(C)C)N(Cc1cccc(N(C)C(C)C)n1)C(=O)c1cccc(c1)S(=O)(=O)N2 (atropisomer, axis not shown) [Compound 255]

Same assay, conditions: with 1 μM Ivacaftor, 18-24 hours, 20% human serum, compared to known Vertex corrector with 18 μM Tezacaftor and 1 μM Ivacaftor, read-out: HBE Max activity (%)

Emax, > 60%:
Cc1cccc(CC(C)(C)C)c1-c1nc2nc(c1C)OC[C@@H](CC(C)(C)C)N(Cc1ncc(OC(C)C)cn1)C(=O)c1cccc(c1)S(=O)(=O)N2 (atropisomer, axis not shown) [Compound 351]
Cc1cccc(C)c1-c1nc2nc(c1C)OC[C@@H](CC1CC1)N(Cc1ncc(OC3CCC3)cn1)C(=O)c1cccc(c1)S(=O)(=O)N2 [Compound 346]
Cc1cccc(C)c1-c1nc2nc(c1F)OC[C@@H](CC(C)(C)C)N(Cc1ncc(OC(C)C)cn1)C(=O)c1cccc(c1)S(=O)(=O)N2 [Compound 335]
